In patent US20210101874A1, “MICROBIOCIDAL OXADIAZOLE DERIVATIVES” (SYNGENTA PARTICIPATIONS AG, priority 2017, published 2021) one finds pest or weed control, inhibition and melting point data, which are given here for 19 compounds.

What is called inhibition is how much of the control response was suppressed. The melting point is the temperature, or range, at which the solid turns liquid.

In data set [1] the test system is Puccinia recondita f. sp. Tritici. Briefly: Puccinia recondita f. sp. tritici / wheat / leaf disc preventative (brown rust). It counts as in vivo. To be noted: foliar, 200 ppm in the applied formulation, wheat leaf segments cv. Kanzler, inoculated 1 day after application, compared to untreated, assessed 7 to 9 days after application, read-out: disease control. The essentials:
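Compound, diluted from DMSO solution into aqueous 0.025% Tween20, is sprayed at 200 ppm onto cut wheat segments (cv. Kanzler) placed on water agar. One day on, segments receive a fungal spore suspension and are incubated at 19° C., 75% rh, 12 h photoperiod, with % control vs untreated scored at 7–9 days.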

In data set [2] the test system is Glomerella lagenarium (Colletotrichum lagenarium). As to the kind of experiment: Glomerella lagenarium (Colletotrichum lagenarium) liquid culture / cucumber / preventative (anthracnose). The conditions noted are these: Colletotrichum orbiculare; 20 ppm in the applied formulation; conidia in PDB nutrient broth, 24° C.; 3 to 4 days after application; compared to untreated; read-out: disease control (inhibition of growth measured photometrically). Type of data set: cell-based. Summed up: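 Test compound, diluted from DMSO, was mixed in microtiter wells with fungal conidia taken from cryogenic storage and suspended in PDB nutrient broth. After 3 to 4 days at 24 °C, photometric growth measurement gave antifungal activity as a percentage of the untreated control.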

Data set [3] deals with Puccinia recondita f. sp. Tritici. Briefly: Puccinia recondita f. sp. tritici / wheat / leaf disc curative (brown rust). Type of data set: in vivo. The conditions noted are these: foliar, 200 ppm in the applied formulation, wheat leaf segments cv. Kanzler, applied 1 day after inoculation, compared to untreated, assessed 6 to 8 days after application, read-out: disease control. The essentials:
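Curative leaf-segment test, cv. Kanzler: spore inoculation, dark storage 19° C/75% RH, compound spray 1 day post-inoculation. Then 12 h light/12 h dark, 19° C, 75% RH. Read-out: % disease control vs untreated check, 6–8 d after application.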

SMILES strings stand for the structures. Bounds are passed on as bounds.

Turning to `CN(C)S(=O)(=O)N(Cc1ccc(-c2noc(C(F)(F)F)n2)cc1)C1CC1` [Compound 1.6, N-(dimethylsulfamoyl)-N-[[4-[5-(trifluoromethyl)-1,2,4-oxadiazol-3-yl]phenyl]methyl] cyclopropanamine], the melting point was 82 to 84 °C. Further, in data set [1], the pest or weed control at 200 ppm is at least 80%. Besides, the inhibition at 20 ppm in data set [2] is at least 80%.
In the case of `O=S(=O)(N1CCOCC1)N(Cc1ccc(-c2noc(C(F)(F)F)n2)cc1)C1CC1` [Compound 1.7, N-cyclopropyl-N-[[4-[5-(trifluoromethyl)-1,2,4-oxadiazol-3-yl]phenyl]methyl] morpholine-4-sulfonamide], the melting point was in the range of 99 to 101 °C. The pest or weed control at 200 ppm in data set [1] is at least 80%. Besides, in data set [2], the inhibition at 20 ppm is at least 80%.
`CON(Cc1ccc(-c2noc(C(F)(F)F)n2)cc1)S(=O)(=O)C1CC1` [Compound 1.9, N-methoxy-N-[[4-[5-(trifluoromethyl)-1,2,4-oxadiazol-3-yl]phenyl]methyl] cyclopropanesulfonamide] had a melting point of 73 to 75 °C. Besides, the inhibition at 20 ppm in data set [2] was at least 80%.
The compound `CN(Cc1ccc(-c2noc(C(F)(F)F)n2)cc1)S(=O)(=O)Cc1ccccc1` [Compound 1.14, N-methyl-1-phenyl-N-[[4-[5-(trifluoromethyl)-1,2,4-oxadiazol-3-yl]phenyl]methyl] methanesulfonamide] gave a melting point of 109 to 111 °C. Moreover, the pest or weed control at 200 ppm in data set [1] is at least 80%. The inhibition at 20 ppm in data set [2] is at least 80%.
In turn, `CCCNS(=O)(=O)N(Cc1ccc(-c2noc(C(F)(F)F)n2)cc1)C1CC1` [Compound 1.21, 3-[4-[[cyclopropyl (propylsulfamoyl)amino]methyl]phenyl]-5-(trifluoromethyl)-1,2,4-oxadiazole] had a melting point of 70 to 73 °C. Further, in data set [2], the inhibition at 20 ppm is at least 80%.
As to `O=S(=O)(NCc1ccc(-c2noc(C(F)(F)F)n2)cc1)c1ccccc1` [Compound 3.1, N-[[4-[5-(trifluoromethyl)-1,2,4-oxadiazol-3-yl]phenyl]methyl] benzenesulfonamide], the melting point was 116 to 124 °C. Moreover, in data set [1], the pest or weed control at 200 ppm was at least 80%. Also, in data set [2], the inhibition at 20 ppm was at least 80%.
As to `O=S(=O)(NCc1ccc(-c2noc(C(F)(F)F)n2)cc1)c1ccc(F)cc1F` [Compound 3.5, 2,4-difluoro-N-[[4-[5-(trifluoromethyl)-1,2,4-oxadiazol-3-yl]phenyl]methyl] benzenesulfonamide], the melting point is 112 to 115 °C. The pest or weed control at 200 ppm in data set [1] was at least 80%.
Turning to `O=S(=O)(Cc1ccc(Cl)cc1F)NCc1ccc(-c2noc(C(F)(F)F)n2)cc1` [Compound 3.6, 1-(4-chloro-2-fluoro-phenyl)-N-[[4-[5-(trifluoromethyl)-1,2,4-oxadiazol-3-yl]phenyl]methyl] methanesulfonamide], the melting point was in the range of 140 to 144 °C. Also, the pest or weed control at 200 ppm in data set [1] was at least 80%.
Regarding `Cn1ccc(S(=O)(=O)NCc2ccc(-c3noc(C(F)(F)F)n3)c(F)c2)n1` [Compound 3.14, N-[[3-fluoro-4-[5-(trifluoromethyl)-1,2,4-oxadiazol-3-yl]phenyl]methyl]-1-methyl-pyrazole-3-sulfonamide], the pest or weed control at 200 ppm in data set [1] and in data set [3] was at least 80% in each case. Also, the inhibition at 20 ppm in data set [2] was at least 80%.
Regarding `O=S(=O)(NCc1ccc(-c2noc(C(F)(F)F)n2)c(F)c1)N1CCCC1` [Compound 3.17, N-[[3-fluoro-4-[5-(trifluoromethyl)-1,2,4-oxadiazol-3-yl]phenyl]methyl] pyrrolidine-1-sulfonamide], the pest or weed control at 200 ppm in data set [1] and in data set [3] was at least 80% each time. The inhibition at 20 ppm in data set [2] is at least 80%.
As for `O=S(=O)(NCc1ccc(-c2noc(C(F)(F)F)n2)c(F)c1)C1CC1` [Compound 3.19, N-[[3-fluoro-4-[5-(trifluoromethyl)-1,2,4-oxadiazol-3-yl]phenyl]methyl] cyclopropanesulfon-amide], the pest or weed control at 200 ppm in data set [1] and in data set [3] was at least 80% throughout. Further, in data set [2], the inhibition at 20 ppm is at least 80%.
For `O=S(=O)(CC1CCOC1)NCc1ccc(-c2noc(C(F)(F)F)n2)c(F)c1` (stereo not shown) [Compound 3.20, N-[[3-fluoro-4-[5-(trifluoromethyl)-1,2,4-oxadiazol-3-yl]phenyl]methyl]-1-tetrahydrofuran-3-yl-methanesulfonamide], the pest or weed control at 200 ppm in data set [1] and in data set [3] was at least 80% throughout. The inhibition at 20 ppm in data set [2] was at least 80%.
With `O=S(=O)(CC1CC1)NCc1ccc(-c2noc(C(F)(F)F)n2)c(F)c1` [Compound 3.21, 1-cyclopropyl-N-[[3-fluoro-4-[5-(trifluoromethyl)-1,2,4-oxadiazol-3-yl]phenyl]methyl] methanesulfonamide], the pest or weed control at 200 ppm in data set [1] and in data set [3] was at least 80% each time. Moreover, the inhibition at 20 ppm in data set [2] was at least 80%.
As for `Cn1ccc(S(=O)(=O)NCc2ccc(-c3noc(C(F)(F)F)n3)cc2F)n1` [Compound 3.24, N-[[2-fluoro-4-[5-(trifluoromethyl)-1,2,4-oxadiazol-3-yl]phenyl]methyl]-1-methyl-pyrazole-3-sulfonamide], the pest or weed control at 200 ppm in data set [1] and in data set [3] was at least 80% throughout. In data set [2], the inhibition at 20 ppm was at least 80%.
As for `O=S(=O)(NCc1ccc(-c2noc(C(F)(F)F)n2)cc1F)N1CCCC1` [Compound 3.27, N-[[2-fluoro-4-[5-(trifluoromethyl)-1,2,4-oxadiazol-3-yl]phenyl]methyl] pyrrolidine-1-sulfonamide], the pest or weed control at 200 ppm in data set [1] and in data set [3] was at least 80% in each case. The inhibition at 20 ppm in data set [2] is at least 80%.
In the case of `O=S(=O)(NCc1ccc(-c2noc(C(F)(F)F)n2)cc1F)C1CC1` [Compound 3.29, N-[[2-fluoro-4-[5-(trifluoromethyl)-1,2,4-oxadiazol-3-yl]phenyl]methyl] cyclopropanesulfon-amide], the pest or weed control at 200 ppm in data set [1] and in data set [3] was at least 80% throughout. Also, the inhibition at 20 ppm in data set [2] was at least 80%.
Turning to `O=S(=O)(CC1CCOC1)NCc1ccc(-c2noc(C(F)(F)F)n2)cc1F` (stereo not shown) [Compound 3.30, N-[[2-fluoro-4-[5-(trifluoromethyl)-1,2,4-oxadiazol-3-yl]phenyl]methyl]-1-tetrahydrofuran-3-yl-methanesulfonamide], the pest or weed control at 200 ppm in data set [1] and in data set [3] was at least 80% in each case. Further, the inhibition at 20 ppm in data set [2] was at least 80%.
As to `O=S(=O)(CC1CC1)NCc1ccc(-c2noc(C(F)(F)F)n2)cc1F` [Compound 3.31, 1-cyclopropyl-N-[[2-fluoro-4-[5-(trifluoromethyl)-1,2,4-oxadiazol-3-yl]phenyl]methyl] methanesulfonamide], the pest or weed control at 200 ppm in data set [1] and in data set [3] was at least 80% in each case. For the same compound, the inhibition at 20 ppm in data set [2] is at least 80%.
Take `O=S(=O)(Cc1ccccc1)Nc1ccc(-c2noc(C(F)(F)F)n2)cc1` [Compound 3.34, 1-phenyl-N-[4-[5-(trifluoromethyl)-1,2,4-oxadiazol-3-yl]phenyl]methane-sulfonamide]: the melting point lay within 125 to 135 °C. Besides, the inhibition at 20 ppm in data set [2] was at least 80%.
